Test system: hypertensive subjects
Experiment: Seated automated office blood pressure (AOBP) in randomized, placebo-controlled, dose-ranging study
Assay type: in vivo, human
Conditions: Part 1
Method: A randomized, double-blinded, placebo-controlled, dose-ranging, multicenter study was conducted to evaluate the effect of orally administered Compound A HBr on blood pressure for the treatment of hypertension in male and female subjects ≥18 years of age.
The study consists of two parts. For enrollment into Part 1 of the study, a subject's value of plasma renin activity (PRA) must be ≤1 ng/mL/h based on morning measurement. If the value of PRA >1 ng/mL/h based on morning measurement, then subjects may be eligible to enter Part 2 of the study.
For Part 1, 163 enrolled subjects ≥18 years of age were randomized into 6 equal treatment groups (1:1:1:1:1:1) to 12.5 mg BID, 25 mg BID, 12.5 mg QD, 50 mg QD, 100 mg QD, or placebo. After a review of interim clinical data, the 2 lowest dose levels (12.5 mg QD and 12.5 mg BID) were stopped for future randomization due to a lack of consistent meaningful reduction of blood pressure, but the patients randomized to that point remained in the study through completion. Thus, after the review of interim clinical data, subjects were randomized into 4 equal treatment groups (1:1:1:1) to 25 mg BID, 50 mg QD, 100 mg QD, or placebo.
For Part 2, 36 enrolled subjects ≥18 years of age were randomized (5:1) to either 100 mg QD Compound A HBr or placebo such that the Compound A HBr treatment group consisted of approximately 30 subjects and the placebo treatment group will consist of approximately 6 subjects.
Subjects orally administered the assigned study drug (Compound A HBr or placebo) according to the assigned dosing regimen for 8 weeks beginning on Study Day 1. All subjects in Part 1 (regardless of dosing group) received BID dosing to preserve the integrity of the blind; active drug is administered as the morning dose for all QD dose groups. Subjects returned to the research facility or were seen by the clinical investigator or approved home health care professional at the end of Study Weeks 1, 2, 3, 4, 5, 6, 7, and 8 (±2 days) for protocol-defined efficacy and safety assessments and procedures, assessment of adverse events (AEs), and confirmation of compliance with study drug usage. Subjects also completed a telephone visit and blood pressure (BP) check at home approximately 3 days post last dose of study drug. Subjects attended up to 14 full clinic visits, including a pre-Screening visit, a Screening/start of Placebo Run-in visit, a second visit during Placebo Run-in, a clinic visit to initiate the ABPM procedure, a Randomization visit, 8 weekly visits during double-blind treatment, and an end-of-study visit scheduled 4 weeks after the last study treatment for final efficacy and safety assessments.
An automated oscillometric sphygmomanometer device was used to measure the subjects' systolic and diastolic blood pressure in office after approximately 5 minutes of rest in the seated position.
The primary endpoint is the change in office-measured (mean of last 2 of 5 unattended measurements using an automated oscillometric sphygmomanometer device after approximately 5 minutes of rest in the seated position) systolic blood pressure (SBP) from baseline to the end of Study Week 8.
Secondary endpoints of this study were: • (a) Change in 24-hour ambulatory blood pressure monitoring (ABPM) parameters (systolic and diastolic) from baseline to the end of Study Week 7. • (b) Change in office-measured SBP from baseline to the end of Study Weeks 1, 2, 3, 4, 5, 6, and 7. • (c) Change in office-measured diastolic blood pressure (DBP) from baseline to the end of Study Weeks 1, 2, 3, 4, 5, 6, 7, and 8. • (d) Proportion of subjects who achieve office-measured BP of ≤130/80 mm Hg by the end of Study Week 8.

[1] = 50 mg QD, Systolic Blood Pressure Tertile at Baseline High
[2] = 50 mg QD, Systolic Blood Pressure Tertile at Baseline Low
[3] = 50 mg QD, Systolic Blood Pressure Tertile at Baseline Middle
[4] = 50 mg QD, Thiazide Diuretic Use at Baseline No
[5] = 50 mg QD, Thiazide Diuretic Use at Baseline Yes

SMILES: CC(=O)N[C@H]1CC[C@H](NC(=O)CN2CCN(c3nncc(-c4ccc(C)cc4)n3)CC2)CC1 [Compound A HBr]
- Mean (SD) Change from Baseline at Week 8 in Automated Office-Measured Diastolic Blood Pressure (50 mg QD, Seated SBP Tertile Middle): −10.63 (7.25) mmHg
- Mean (SD) Automated Office-Measured Diastolic Blood Pressure at Wk 8 (50 mg QD, Sex Female): 75.67 (12.10) mmHg
- Mean (SD) Automated Office-Measured Systolic Blood Pressure at Wk 8 (50 mg QD, Sex Female): 125.67 (11.97) mmHg
- Mean (SD) Change from Baseline at Week 8 in Automated Office-Measured Diastolic Blood Pressure (50 mg QD, Sex Female): −9.20 (10.37) mmHg
- Mean (SD) Change from Baseline at Week 8 in Automated Office-Measured Systolic Blood Pressure (50 mg QD, Sex Female): −15.97 (18.44) mmHg
- Mean (SD) Automated Office-Measured Diastolic Blood Pressure at Wk 8 (50 mg QD, Sex Male): 78.15 (6.52) mmHg
- Mean (SD) Change from Baseline at Week 8 in Automated Office-Measured Diastolic Blood Pressure (50 mg QD, Sex Male): −6.73 (7.65) mmHg
- Mean (SD) Change from Baseline at Week 8 in Automated Office-Measured Systolic Blood Pressure (50 mg QD, Sex Male): −9.96 (15.67) mmHg
- Mean (SD) Automated Office-Measured Systolic Blood Pressure at Wk 8 [1]: 127.25 (17.59) mmHg
- Mean (SD) Change from Baseline at Week 8 in Automated Office-Measured Systolic Blood Pressure [1]: −29.25 (14.31) mmHg
- Mean (SD) Automated Office-Measured Systolic Blood Pressure at Wk 8 [2]: 130.25 (12.04) mmHg
- Mean (SD) Change from Baseline at Week 8 in Automated Office-Measured Systolic Blood Pressure [2]: −2.58 (12.54) mmHg
- Mean (SD) Automated Office-Measured Systolic Blood Pressure at Wk 8 [3]: 127.63 (13.35) mmHg
- Mean (SD) Change from Baseline at Week 8 in Automated Office-Measured Systolic Blood Pressure [3]: −13.00 (14.05) mmHg
- Automated Office-Measured Diastolic Blood Pressure, Week 8, Mean (SD) [4]: 78.00 (6.42) mmHg
- Mean (SD) Automated Office-Measured Systolic Blood Pressure at Wk 8 [4]: 130.00 (13.65) mmHg
- Mean (SD) Change from Baseline at Week 8 in Automated Office-Measured Diastolic Blood Pressure [4]: −4.71 (7.77) mmHg
- Mean (SD) Change from Baseline at Week 8 in Automated Office-Measured Systolic Blood Pressure [4]: −7.67 (15.11) mmHg
- Automated Office-Measured Diastolic Blood Pressure, Week 8, Mean (SD) [5]: 75.94 (11.89) mmHg
- Mean (SD) Automated Office-Measured Systolic Blood Pressure at Wk 8 [5]: 127.63 (14.08) mmHg
- Mean (SD) Change from Baseline at Week 8 in Automated Office-Measured Diastolic Blood Pressure [5]: −10.56 (9.49) mmHg
- Mean (SD) Change from Baseline at Week 8 in Automated Office-Measured Systolic Blood Pressure [5]: −17.31 (17.91) mmHg
- Mean (SD) Automated Office-Measured Systolic Blood Pressure at Wk 8 (100 mg QD, ACEi/ARB No): 116.80 (7.19) mmHg
- Mean (SD) Change from Baseline at Week 8 in Automated Office-Measured Systolic Blood Pressure (100 mg QD, ACEi/ARB No): −23.70 (8.89) mmHg
- Mean (SD) Automated Office-Measured Systolic Blood Pressure at Wk 8 (100 mg QD, ACEi/ARB Yes): 134.90 (13.12) mmHg
- Mean (SD) Change from Baseline at Week 8 in Automated Office-Measured Systolic Blood Pressure (100 mg QD, ACEi/ARB Yes): −11.68 (13.23) mmHg
- Mean (SD) Automated Office-Measured Diastolic Blood Pressure at Wk 8 (100 mg QD, ACEi/ARBs No): 71.40 (10.62) mmHg
- Mean (SD) Change from Baseline at Week 8 in Automated Office-Measured Diastolic Blood Pressure (100 mg QD, ACEi/ARBs No): −9.00 (6.21) mmHg
- Mean (SD) Automated Office-Measured Diastolic Blood Pressure at Wk 8 (100 mg QD, ACEi/ARBs Yes): 73.40 (9.37) mmHg
- Mean (SD) Change from Baseline at Week 8 in Automated Office-Measured Diastolic Blood Pressure (100 mg QD, ACEi/ARBs Yes): −4.58 (8.10) mmHg
- Mean (SD) Automated Office-Measured Diastolic Blood Pressure at Wk 8 (100 mg QD, AHTs 2): 74.09 (4.66) mmHg
- Mean (SD) Automated Office-Measured Systolic Blood Pressure at Wk 8 (100 mg QD, AHTs 2): 124.82 (13.25) mmHg
- Mean (SD) Change from Baseline at Week 8 in Automated Office-Measured Diastolic Blood Pressure (100 mg QD, AHTs 2): −8.09 (8.81) mmHg
- Mean (SD) Change from Baseline at Week 8 in Automated Office-Measured Systolic Blood Pressure (100 mg QD, AHTs 2): −17.95 (15.83) mmHg
- Mean (SD) Automated Office-Measured Diastolic Blood Pressure at Wk 8 (100 mg QD, AHTs ≥3): 72.14 (12.08) mmHg
- Mean (SD) Automated Office-Measured Systolic Blood Pressure at Wk 8 (100 mg QD, AHTs ≥3): 136.36 (13.05) mmHg
- Mean (SD) Change from Baseline at Week 8 in Automated Office-Measured Diastolic Blood Pressure (100 mg QD, AHTs ≥3): −3.39 (6.60) mmHg
- Mean (SD) Change from Baseline at Week 8 in Automated Office-Measured Systolic Blood Pressure (100 mg QD, AHTs ≥3): −11.04 (10.45) mmHg
- Mean (SD) Automated Office-Measured Diastolic Blood Pressure at Wk 8 (100 mg QD, Age 65-79 yr): 72.80 (7.89) mmHg
- Mean (SD) Automated Office-Measured Systolic Blood Pressure at Wk 8 (100 mg QD, Age 65-79 yr): 133.73 (12.53) mmHg
- Mean (SD) Change from Baseline at Week 8 in Automated Office-Measured Diastolic Blood Pressure (100 mg QD, Age 65-79 yr): −4.37 (7.01) mmHg
- Mean (SD) Change from Baseline at Week 8 in Automated Office-Measured Systolic Blood Pressure (100 mg QD, Age 65-79 yr): −9.53 (11.49) mmHg
- Mean (SD) Automated Office-Measured Diastolic Blood Pressure at Wk 8 (100 mg QD, Age <65 yr): 78.33 (9.69) mmHg
- Mean (SD) Automated Office-Measured Systolic Blood Pressure at Wk 8 (100 mg QD, Age <65 yr): 129.33 (20.63) mmHg
- Mean (SD) Change from Baseline at Week 8 in Automated Office-Measured Diastolic Blood Pressure (100 mg QD, Age <65 yr): −8.67 (10.16) mmHg
- Mean (SD) Change from Baseline at Week 8 in Automated Office-Measured Systolic Blood Pressure (100 mg QD, Age <65 yr): −22.75 (14.75) mmHg
